This is an account of results in US8598159B2, “Therapeutic pyrazoloquinoline derivatives” (Dart Neuroscience (Cayman) Ltd., priority 2007, dated 2013).

One assay deals with GABAA receptors. Put plainly: Electrophysiology assay (two-electrode voltage clamp, Xenopus oocytes expressing GABAA receptors). To be noted: positive (Pos) or negative (Neg) modulation of current at GABA EC20, screening concentration of 10 μM. Type of assay: cell-based.
Assay [1] addresses GABAA central benzodiazepine receptor. Put plainly: Benzodiazepine binding assay ((3H)-flunitrazepam displacement). The following applies: read-out: BZ binding assay (IC50); rat whole brain (except cerebellum), 1 nM (3H)-flunitrazepam, 60 minutes at 25° C.; 3-concentration dose response curve.

Some results are limits rather than exact numbers.

As a reminder, the IC50 is the concentration needed to halve the response being measured. In the case of `O=c1c2c[nH]c3c(F)c(N4CCNCC4)c(F)cc3c-2nn1-c1ccccc1` [44a, 6,8-Difluoro-2-phenyl-7-piperazin-1-yl-2,5-dihydro-pyrazolo[4,3-c]quinolin-3-one], the “EP Result” value in the assay with GABAA receptors is on record as “Neg”. In addition, the half-inhibitory concentration (IC50) in assay [1] is less than 1 µM.
Take `CN1CCN(c2c(F)cc3c4nn(-c5ccccc5)c(=O)c-4c[nH]c3c2F)CC1` [44b, 6,8-Difluoro-7-(4-methyl-piperazin-1-yl)-2-phenyl-2,5-dihydro-pyrazolo [4,3-c]quinolin-3-one]: the “EP Result” value in the assay on GABAA receptors is reported as “Pos”. Moreover, the IC50 in assay [1] was less than 1 µM.
For `O=c1c2c[nH]c3c(F)c(N4CCOCC4)c(F)cc3c-2nn1-c1ccccc1` [44c, 6,8-Difluoro-7-(morpholin-4-yl)-2-phenyl-2,5-dihydro-pyrazolo[4,3-c]quinolin-3-one] the same measures were “Pos” and less than 1 µM.
The like results for `COc1ccc(-n2nc3c4cc(F)c(N5CCN(C)CC5)c(F)c4[nH]cc-3c2=O)cc1` [44d, 6,8-Difluoro-2-(4-methoxyphenyl)-7-(4-methylpiperazin-1-yl)-2,5-dihydro-pyrazolo[4,3-c]quinolin-3-one] were, in that order, “Pos” and less than 1 µM.
